Assay results published in patent US20150133369A1, “PHARMACOKINETIC MODULATION WITH ALISPORIVIR” (priority 2012, published 2015).
Where two headings read alike, the source gives them in different places. Blank lines part the entries; values can stand above or below the compound they belong to.

Legend:
[1] = target: T1, OATP1B1 (Homo sapiens, UniProt Q9Y6L6)
T1 sequence (Q9Y6L6 1-691): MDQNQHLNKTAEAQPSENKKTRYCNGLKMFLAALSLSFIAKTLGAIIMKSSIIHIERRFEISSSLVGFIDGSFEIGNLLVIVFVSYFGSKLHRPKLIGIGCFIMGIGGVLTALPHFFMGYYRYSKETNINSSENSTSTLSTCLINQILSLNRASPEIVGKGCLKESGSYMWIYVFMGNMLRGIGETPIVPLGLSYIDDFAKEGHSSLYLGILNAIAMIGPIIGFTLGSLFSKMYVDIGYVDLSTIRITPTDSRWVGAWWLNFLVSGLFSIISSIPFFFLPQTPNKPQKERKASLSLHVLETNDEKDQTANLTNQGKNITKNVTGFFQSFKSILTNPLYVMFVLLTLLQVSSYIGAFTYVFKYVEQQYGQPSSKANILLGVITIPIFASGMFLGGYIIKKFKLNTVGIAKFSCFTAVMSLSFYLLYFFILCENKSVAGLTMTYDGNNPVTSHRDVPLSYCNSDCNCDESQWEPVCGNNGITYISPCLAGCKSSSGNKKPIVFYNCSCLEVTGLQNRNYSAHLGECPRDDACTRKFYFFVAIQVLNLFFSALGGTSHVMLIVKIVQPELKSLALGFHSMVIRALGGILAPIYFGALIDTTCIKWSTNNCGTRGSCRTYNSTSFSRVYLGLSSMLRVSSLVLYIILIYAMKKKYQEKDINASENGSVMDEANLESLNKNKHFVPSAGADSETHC

[2] = target: T2, OATP1B3 (Homo sapiens, UniProt Q9NPD5)
T2 sequence (Q9NPD5 1-702): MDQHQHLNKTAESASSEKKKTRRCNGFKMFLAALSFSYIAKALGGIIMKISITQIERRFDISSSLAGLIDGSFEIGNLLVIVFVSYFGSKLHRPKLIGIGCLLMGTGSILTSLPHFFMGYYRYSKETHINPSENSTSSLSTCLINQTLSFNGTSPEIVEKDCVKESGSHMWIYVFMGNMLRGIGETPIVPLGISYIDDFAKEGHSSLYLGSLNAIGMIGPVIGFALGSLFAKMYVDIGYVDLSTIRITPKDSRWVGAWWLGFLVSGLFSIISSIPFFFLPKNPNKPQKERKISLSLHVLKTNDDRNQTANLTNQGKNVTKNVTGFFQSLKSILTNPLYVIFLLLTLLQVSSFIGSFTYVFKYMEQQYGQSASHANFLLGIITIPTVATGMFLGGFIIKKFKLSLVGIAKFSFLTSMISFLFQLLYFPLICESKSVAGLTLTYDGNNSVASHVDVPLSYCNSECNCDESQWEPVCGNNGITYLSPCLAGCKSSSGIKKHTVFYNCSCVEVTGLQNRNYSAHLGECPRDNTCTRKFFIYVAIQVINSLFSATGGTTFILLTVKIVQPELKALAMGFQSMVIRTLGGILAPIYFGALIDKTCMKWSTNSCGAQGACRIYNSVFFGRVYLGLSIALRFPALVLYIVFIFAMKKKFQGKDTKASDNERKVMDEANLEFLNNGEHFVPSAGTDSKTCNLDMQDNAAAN

[3] = target: T3, MRP2 (Homo sapiens, UniProt Q92887)
T3 sequence (Q92887 whole entry): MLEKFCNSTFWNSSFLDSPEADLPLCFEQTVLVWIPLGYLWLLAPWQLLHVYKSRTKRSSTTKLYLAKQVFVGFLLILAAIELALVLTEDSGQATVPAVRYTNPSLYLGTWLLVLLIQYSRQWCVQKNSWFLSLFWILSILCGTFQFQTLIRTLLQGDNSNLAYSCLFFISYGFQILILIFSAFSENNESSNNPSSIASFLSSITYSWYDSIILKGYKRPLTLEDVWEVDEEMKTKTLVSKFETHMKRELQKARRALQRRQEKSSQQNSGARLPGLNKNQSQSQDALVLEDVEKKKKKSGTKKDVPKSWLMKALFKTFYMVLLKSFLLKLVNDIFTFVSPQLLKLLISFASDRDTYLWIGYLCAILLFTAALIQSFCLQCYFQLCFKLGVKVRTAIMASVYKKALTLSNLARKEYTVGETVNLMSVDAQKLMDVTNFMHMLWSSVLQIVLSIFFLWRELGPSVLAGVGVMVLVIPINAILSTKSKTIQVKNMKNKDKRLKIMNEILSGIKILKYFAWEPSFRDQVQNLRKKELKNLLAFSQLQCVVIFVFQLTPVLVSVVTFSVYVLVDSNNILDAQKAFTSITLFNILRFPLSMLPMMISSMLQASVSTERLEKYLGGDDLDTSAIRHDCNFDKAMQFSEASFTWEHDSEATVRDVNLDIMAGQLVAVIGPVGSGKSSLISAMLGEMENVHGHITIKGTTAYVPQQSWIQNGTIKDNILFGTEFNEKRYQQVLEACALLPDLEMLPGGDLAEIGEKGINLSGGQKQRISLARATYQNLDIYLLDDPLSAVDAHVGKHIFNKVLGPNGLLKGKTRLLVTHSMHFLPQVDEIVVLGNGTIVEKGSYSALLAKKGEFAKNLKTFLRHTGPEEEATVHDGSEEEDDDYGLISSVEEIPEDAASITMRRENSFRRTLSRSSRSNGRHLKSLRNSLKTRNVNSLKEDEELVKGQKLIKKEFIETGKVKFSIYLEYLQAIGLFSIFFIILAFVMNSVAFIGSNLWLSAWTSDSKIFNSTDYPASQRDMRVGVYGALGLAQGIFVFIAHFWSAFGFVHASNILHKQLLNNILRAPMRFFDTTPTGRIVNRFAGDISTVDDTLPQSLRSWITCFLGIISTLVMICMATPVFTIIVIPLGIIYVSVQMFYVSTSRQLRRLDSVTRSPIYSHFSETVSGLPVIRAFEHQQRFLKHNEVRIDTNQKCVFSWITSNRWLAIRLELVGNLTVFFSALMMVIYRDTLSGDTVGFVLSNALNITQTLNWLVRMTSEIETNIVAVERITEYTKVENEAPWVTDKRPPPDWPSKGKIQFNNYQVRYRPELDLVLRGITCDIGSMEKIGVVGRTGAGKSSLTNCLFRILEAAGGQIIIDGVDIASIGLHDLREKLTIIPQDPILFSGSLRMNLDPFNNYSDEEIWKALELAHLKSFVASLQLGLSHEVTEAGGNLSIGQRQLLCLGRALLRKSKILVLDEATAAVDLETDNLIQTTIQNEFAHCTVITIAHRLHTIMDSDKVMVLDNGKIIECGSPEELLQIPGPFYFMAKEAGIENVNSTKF

[4] = target: CYP3A4 (Homo sapiens, UniProt P08684)
Chain of CYP3A4 (P08684 whole entry): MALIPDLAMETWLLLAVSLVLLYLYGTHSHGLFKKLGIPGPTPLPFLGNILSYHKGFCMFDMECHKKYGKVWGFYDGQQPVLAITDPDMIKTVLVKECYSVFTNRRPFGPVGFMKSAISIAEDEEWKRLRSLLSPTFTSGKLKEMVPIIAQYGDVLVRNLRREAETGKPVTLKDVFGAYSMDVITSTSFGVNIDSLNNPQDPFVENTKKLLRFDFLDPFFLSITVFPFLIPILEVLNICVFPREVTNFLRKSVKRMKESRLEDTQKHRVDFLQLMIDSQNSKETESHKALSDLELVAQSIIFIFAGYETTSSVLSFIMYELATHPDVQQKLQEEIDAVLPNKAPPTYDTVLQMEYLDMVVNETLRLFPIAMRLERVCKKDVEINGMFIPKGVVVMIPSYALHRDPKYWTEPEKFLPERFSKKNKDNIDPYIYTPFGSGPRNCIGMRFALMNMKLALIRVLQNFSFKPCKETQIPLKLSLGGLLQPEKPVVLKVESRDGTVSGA

[5] = target: P-gp (Homo sapiens, UniProt P08183); settings: not told
Chain of P-gp (P08183 whole entry): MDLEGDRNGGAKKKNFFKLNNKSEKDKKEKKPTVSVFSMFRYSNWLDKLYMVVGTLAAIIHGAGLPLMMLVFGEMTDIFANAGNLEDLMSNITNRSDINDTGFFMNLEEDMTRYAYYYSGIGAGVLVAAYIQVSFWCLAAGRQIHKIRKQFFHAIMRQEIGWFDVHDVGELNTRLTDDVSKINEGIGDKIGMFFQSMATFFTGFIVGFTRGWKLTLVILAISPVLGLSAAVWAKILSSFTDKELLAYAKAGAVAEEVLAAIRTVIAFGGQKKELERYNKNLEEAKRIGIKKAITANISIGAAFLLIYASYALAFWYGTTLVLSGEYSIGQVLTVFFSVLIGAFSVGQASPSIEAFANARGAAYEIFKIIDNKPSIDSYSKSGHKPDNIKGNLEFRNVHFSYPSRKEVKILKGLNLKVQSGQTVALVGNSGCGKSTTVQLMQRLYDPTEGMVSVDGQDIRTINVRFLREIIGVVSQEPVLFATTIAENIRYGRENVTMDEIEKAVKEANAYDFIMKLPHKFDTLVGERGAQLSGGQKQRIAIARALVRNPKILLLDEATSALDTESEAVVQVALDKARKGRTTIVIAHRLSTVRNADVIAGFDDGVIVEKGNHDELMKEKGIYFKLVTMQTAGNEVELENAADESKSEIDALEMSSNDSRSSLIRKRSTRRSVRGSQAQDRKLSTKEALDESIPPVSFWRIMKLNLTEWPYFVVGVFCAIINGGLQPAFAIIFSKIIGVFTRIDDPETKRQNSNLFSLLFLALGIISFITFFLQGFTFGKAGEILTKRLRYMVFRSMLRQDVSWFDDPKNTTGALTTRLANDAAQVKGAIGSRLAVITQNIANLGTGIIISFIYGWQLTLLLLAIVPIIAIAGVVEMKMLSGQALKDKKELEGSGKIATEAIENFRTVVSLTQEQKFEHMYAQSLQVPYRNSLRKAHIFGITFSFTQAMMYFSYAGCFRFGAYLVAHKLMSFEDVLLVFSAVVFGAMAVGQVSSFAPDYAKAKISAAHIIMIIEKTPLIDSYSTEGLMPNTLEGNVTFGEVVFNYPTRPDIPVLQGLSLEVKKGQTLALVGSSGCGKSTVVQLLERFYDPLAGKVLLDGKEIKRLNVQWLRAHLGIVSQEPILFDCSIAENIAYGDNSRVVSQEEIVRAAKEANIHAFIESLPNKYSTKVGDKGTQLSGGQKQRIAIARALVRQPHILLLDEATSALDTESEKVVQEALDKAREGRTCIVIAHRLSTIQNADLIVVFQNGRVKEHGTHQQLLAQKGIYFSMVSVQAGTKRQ

[6] = target: T1, OATP1B1; remark: listed apart in the source
[7] = target: T2, OATP1B3; remark: listed apart in the source
[8] = target: T3, MRP2; settings: not told
[9] = target: BSEP (Homo sapiens, UniProt O95342)
Chain of BSEP (O95342 whole entry): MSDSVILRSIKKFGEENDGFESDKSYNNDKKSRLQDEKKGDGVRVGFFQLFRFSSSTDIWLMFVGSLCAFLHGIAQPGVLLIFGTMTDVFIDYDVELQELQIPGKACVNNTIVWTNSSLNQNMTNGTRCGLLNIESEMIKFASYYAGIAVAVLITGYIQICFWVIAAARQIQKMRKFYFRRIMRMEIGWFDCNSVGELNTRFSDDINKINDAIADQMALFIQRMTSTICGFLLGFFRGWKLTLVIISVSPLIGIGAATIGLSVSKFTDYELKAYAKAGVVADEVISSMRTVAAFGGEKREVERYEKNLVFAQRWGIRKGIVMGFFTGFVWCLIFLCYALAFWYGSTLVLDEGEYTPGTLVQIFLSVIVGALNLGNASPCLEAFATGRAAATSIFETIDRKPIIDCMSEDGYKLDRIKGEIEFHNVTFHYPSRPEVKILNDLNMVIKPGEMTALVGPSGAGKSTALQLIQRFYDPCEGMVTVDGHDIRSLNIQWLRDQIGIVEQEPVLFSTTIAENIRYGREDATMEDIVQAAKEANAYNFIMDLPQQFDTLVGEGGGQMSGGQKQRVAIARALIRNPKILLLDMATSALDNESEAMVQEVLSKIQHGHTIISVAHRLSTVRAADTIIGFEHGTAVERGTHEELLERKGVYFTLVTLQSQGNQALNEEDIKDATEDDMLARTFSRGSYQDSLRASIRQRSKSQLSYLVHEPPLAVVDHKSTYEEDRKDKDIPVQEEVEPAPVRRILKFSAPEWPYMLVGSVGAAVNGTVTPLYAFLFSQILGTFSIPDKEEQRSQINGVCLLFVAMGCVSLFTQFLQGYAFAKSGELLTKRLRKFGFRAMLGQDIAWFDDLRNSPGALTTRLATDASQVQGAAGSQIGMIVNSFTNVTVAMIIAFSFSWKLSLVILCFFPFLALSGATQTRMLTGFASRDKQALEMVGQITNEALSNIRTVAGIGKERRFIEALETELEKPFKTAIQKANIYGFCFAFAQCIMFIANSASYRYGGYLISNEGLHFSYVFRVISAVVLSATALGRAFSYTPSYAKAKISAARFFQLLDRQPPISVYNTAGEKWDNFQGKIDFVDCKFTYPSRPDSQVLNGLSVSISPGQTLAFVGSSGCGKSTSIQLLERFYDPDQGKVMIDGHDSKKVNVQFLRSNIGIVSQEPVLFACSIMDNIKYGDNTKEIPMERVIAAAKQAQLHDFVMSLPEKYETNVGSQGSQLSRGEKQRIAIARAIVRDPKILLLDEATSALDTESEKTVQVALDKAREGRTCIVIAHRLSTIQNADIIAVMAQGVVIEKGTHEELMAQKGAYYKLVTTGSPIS

[10] = target: T4, NTCP (Homo sapiens, UniProt Q14973)
T4 sequence (Q14973 1-349): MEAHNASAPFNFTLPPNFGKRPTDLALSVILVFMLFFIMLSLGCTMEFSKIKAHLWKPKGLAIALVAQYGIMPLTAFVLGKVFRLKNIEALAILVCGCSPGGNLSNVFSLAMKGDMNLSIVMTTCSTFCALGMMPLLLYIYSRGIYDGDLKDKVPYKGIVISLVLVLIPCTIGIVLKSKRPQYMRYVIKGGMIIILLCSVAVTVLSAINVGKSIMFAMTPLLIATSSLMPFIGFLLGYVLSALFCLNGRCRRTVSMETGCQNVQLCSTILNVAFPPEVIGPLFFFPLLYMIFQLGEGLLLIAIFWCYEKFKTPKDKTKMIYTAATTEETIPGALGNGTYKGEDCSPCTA

[11] = test system: CYP isozymes
[12] = target: T5, UGT1A1 (Homo sapiens, UniProt P22309)
T5 sequence (P22309 26-533): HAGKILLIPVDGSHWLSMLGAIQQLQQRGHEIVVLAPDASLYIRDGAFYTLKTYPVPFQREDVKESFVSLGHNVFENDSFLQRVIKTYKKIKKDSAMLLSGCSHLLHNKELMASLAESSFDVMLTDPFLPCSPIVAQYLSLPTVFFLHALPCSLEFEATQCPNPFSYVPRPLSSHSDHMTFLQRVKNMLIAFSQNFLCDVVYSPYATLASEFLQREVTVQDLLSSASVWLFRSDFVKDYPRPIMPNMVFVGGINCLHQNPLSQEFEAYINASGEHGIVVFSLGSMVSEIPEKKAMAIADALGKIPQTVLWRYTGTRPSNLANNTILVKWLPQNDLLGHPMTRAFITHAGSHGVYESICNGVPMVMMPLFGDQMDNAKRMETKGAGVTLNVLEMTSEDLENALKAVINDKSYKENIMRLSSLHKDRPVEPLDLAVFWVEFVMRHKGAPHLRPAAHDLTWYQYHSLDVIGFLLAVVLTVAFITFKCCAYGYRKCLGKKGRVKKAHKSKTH

[13] = target: T6, UGT2B7 (Homo sapiens, UniProt P16662)
T6 sequence (P16662 24-529): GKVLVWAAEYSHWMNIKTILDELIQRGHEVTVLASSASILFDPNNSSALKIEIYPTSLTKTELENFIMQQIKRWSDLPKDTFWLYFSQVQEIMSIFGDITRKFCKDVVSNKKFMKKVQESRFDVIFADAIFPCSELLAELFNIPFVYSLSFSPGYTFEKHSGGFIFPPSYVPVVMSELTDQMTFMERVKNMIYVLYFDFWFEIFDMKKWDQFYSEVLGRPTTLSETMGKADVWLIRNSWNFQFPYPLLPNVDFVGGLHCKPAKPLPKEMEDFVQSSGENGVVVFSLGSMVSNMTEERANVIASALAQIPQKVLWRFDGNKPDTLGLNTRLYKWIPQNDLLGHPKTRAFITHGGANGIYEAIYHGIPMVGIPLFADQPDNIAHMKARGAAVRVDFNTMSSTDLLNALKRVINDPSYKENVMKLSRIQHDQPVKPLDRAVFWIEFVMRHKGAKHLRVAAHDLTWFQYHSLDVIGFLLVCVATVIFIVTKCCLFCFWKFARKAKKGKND

[14] = human, in vivo, po
[15] = human, in vivo, po; remark: listed apart in the source
[16] = test system: HIV-1; settings: in vitro; more potent than CsA; cited from earlier work
[17] = clinical drug-drug interaction study: effect of alisporivir on digoxin (P-gp substrate) pharmacokinetics; assay type: in vivo, human; settings: alisporivir 600 mg BID for 7 days; single oral 0.25 mg dose of digoxin
Protocol: Digoxin 0.25 mg is generally initiated in patients under the age of 70 with good renal function. When digoxin is taken with food high in bran fiber, the amount absorbed from an oral dose may be reduced.

[18] = clinical drug-drug interaction study: effect of alisporivir on telaprevir (CYP3A4 and P-gp substrate) pharmacokinetics; assay type: in vivo; settings: healthy human subjects; alisporivir 600 mg BID for 7 day and 600 mg QD for one additional day; single 375 mg oral dose of telaprevir
Protocol: The T1/2 of telaprevir was longer when telaprevir was administered with alisporivir.

[19] = human, in vivo, po; remark: listed apart in the source
[20] = clinical drug-drug interaction study: effect of alisporivir on azithromycin (CYP3A4 substrate) pharmacokinetics; assay type: in vivo, human; settings: single 1200 mg oral dose of alisporivir; single oral 1000 mg dose of azithromycin
[21] = alisporivir 600 mg BID for 10 days; single 40 mg oral dose of atorvastatin
[22] = clinical drug-drug interaction study: effect of alisporivir on buspirone (sensitive CYP3A4 substrate) pharmacokinetics; settings: alisporivir 600 mg BID for 7 days; single oral 5 mg dose of buspirone
[23] = human, in vivo, po; remark: listed apart in the source
[24] = clinical drug-drug interaction study: effect of alisporivir on boceprevir (CYP3A4 and P-gp substrate) pharmacokinetics; assay type: in vivo; settings: healthy human subjects; alisporivir 600 mg BID for 7 days and 600 mg QD for one additional day; single 400 mg oral dose of boceprevir
Protocol: The T1/2 of boceprevir was similar when boceprevir was administered with alisporivir.

[25] = effect of alisporivir on circulating bilirubin concentrations in healthy subjects; settings: 40 mg valsartan before and after alisporivir 600 mg BID 7 days then QD
[26] = clinical drug-drug interaction study: effect of alisporivir on valsartan (CYP2C9, OATP1B1, OATP1B3, MRP2 substrate) pharmacokinetics; settings: alisporivir 600 mg BID for 7 days; single oral 40 mg dose of valsartan

SMILES: C/C=C/C[C@@H](C)[C@@H](O)[C@H]1C(=O)N[C@@H](CC)C(=O)N(C)[C@H](C)C(=O)N(CC)[C@@H](C(C)C)C(=O)N[C@@H](C(C)C)C(=O)N(C)[C@@H](CC(C)C)C(=O)N[C@@H](C)C(=O)N[C@H](C)C(=O)N(C)[C@@H](CC(C)C)C(=O)N(C)[C@@H](CC(C)C)C(=O)N(C)[C@@H](C(C)C)C(=O)N1C [alisporivir]
IC50 [1]: 700 nM | IC50 [2]: 700 nM | Ki [3]: 5900 nM | inhibition of CYP3A4 [4]: time-dependent inhibitor of CYP3A4 | inhibition of P-gp [5]: inhibitor | inhibition of OATP1B1 [6]: inhibitor | inhibition of OATP1B3 [7]: inhibitor | inhibition of MRP2 [8]: inhibitor | inhibition of BSEP [9]: inhibitor | inhibition of NTCP [10]: inhibitor | inducing effects on CYP isozymes [11]: no inducing effects | inhibition of UGT1A1 [12]: does not inhibit | inhibition of UGT2B7 [13]: does not inhibit | T1/2 when administered with telaprevir [14]: shorter | T1/2 when administered with boceprevir [15]: shorter | anti-HIV-1 potency relative to CsA [16]: approximately 10 fold

SMILES: C[C@H]1O[C@@H](O[C@H]2[C@@H](O)C[C@H](O[C@H]3[C@@H](O)C[C@H](O[C@H]4CC[C@@]5(C)[C@H](CC[C@@H]6[C@@H]5C[C@@H](O)[C@]5(C)[C@@H](C7=CC(=O)OC7)CC[C@]65O)C4)O[C@@H]3C)O[C@@H]2C)C[C@H](O)[C@@H]1O [digoxin]
effect of alisporivir on renal clearance [17]: did not affect | increase in Cmax [17]: ~1.8 fold | increase in the AUC [17]: ~2.6 fold

SMILES: CCC[C@H](NC(=O)[C@@H]1[C@H]2CCC[C@H]2CN1C(=O)[C@@H](NC(=O)[C@@H](NC(=O)c1cnccn1)C1CCCCC1)C(C)(C)C)C(=O)C(=O)NC1CC1 [telaprevir]
T1/2 when administered with alisporivir [18]: longer | increase in the Cmax [18]: ~2.4 fold

T1/2 when administered with alisporivir [19]: similar
SMILES: CN(C)CCC[C@@]1(c2ccc(F)cc2)OCc2cc(C#N)ccc21 [escitalopram]

increase in the AUC [20]: 32-39%
SMILES: CC[C@H]1OC(=O)[C@H](C)[C@@H](O[C@H]2C[C@@](C)(OC)[C@@H](O)[C@H](C)O2)[C@H](C)[C@@H](O[C@@H]2O[C@H](C)C[C@H](N(C)C)[C@H]2O)[C@](C)(O)C[C@@H](C)CN(C)[C@H](C)[C@@H](O)[C@]1(C)O [azithromycin]

increase in exposure (AUC) [21]: ~9 fold | increase in exposure (Cmax) [21]: approximately 7 fold
SMILES: CC(C)c1c(C(=O)Nc2ccccc2O)c(-c2ccccc2)c(-c2ccc(F)cc2)n1CCC(O)CC(O)CC(=O)O (centres unmarked) [o-OH-atorvastatin]

SMILES: c1cnc(N2CCNCC2)nc1 [1-PP]
AUC increase (metabolite of buspirone) [22]: 12-15%

T1/2 when administered with alisporivir [23]: longer
SMILES: CC(C)n1c(/C=C/C(O)CC(O)CC(=O)O)c(-c2ccc(F)cc2)c2ccccc21 (centres unmarked) [fluvastatin]

T1/2 when administered with alisporivir [24]: similar | increase in the Cmax [24]: ~47%
SMILES: CC(C)(C)NC(=O)N[C@H](C(=O)N1C[C@H]2[C@@H]([C@H]1C(=O)NC(CC1CCC1)C(=O)C(N)=O)C2(C)C)C(C)(C)C (some centres unmarked) [boceprevir]

Valsartan exposure increased [25]: ~6 fold | increase in Cmax [26]: approximately 2.3 fold | increase in the AUC [26]: ~6 fold
SMILES: CCCCC(=O)N(Cc1ccc(-c2ccccc2-c2nnn[nH]2)cc1)[C@H](C(=O)O)C(C)C [valsartan]
